ChEMBL document CHEMBL4130345, “Discovery of a series of dihydroquinoxalin-2(1H)-ones as selective BET inhibitors from a dual PLK1-BRD4 inhibitor” (Eur J Med Chem, 2017)

Experiments:
[1] = biological target: Bromodomain-containing protein 3 (Homo sapiens) (UniProt Q15059); assay: Inhibition of human partial length BRD3 bromodomain 1 (P24 to E144 residues) expressed in Escherichia coli BL21 assessed as residual activity at 1 uM after 1 hr by qPCR method relative to control
[2] = biological target: Chromatin remodeling regulator CECR2 (Homo sapiens) (UniProt Q9BXF3); assay: Inhibition of human partial length CECR2 (P423 to D543 residues) expressed in Escherichia coli BL21 assessed as residual activity at 1 uM after 1 hr by qPCR method relative to control
[3] = biological target: T1, Bromodomain-containing protein 4 (Homo sapiens, UniProt O60885); assay: Inhibition of BRD4 in human TY82 cells assessed as downregulation of c-Myc mRNA expression after 24 hrs by RT-qPCR method; assay type: cell-based
[4] = biological target: Bromodomain adjacent to zinc finger domain protein 2B (Homo sapiens) (UniProt Q9UIF8); assay: Inhibition of human partial length BAZ2B (S2054 to S2168 residues) expressed in Escherichia coli BL21 assessed as residual activity at 1 uM after 1 hr by qPCR method relative to control
[5] = biological target: CREB-binding protein (Homo sapiens) (UniProt Q92793); assay: Inhibition of human partial length CREBBP (R1081 to G1197 residues) expressed in Escherichia coli BL21 assessed as residual activity at 1 uM after 1 hr by qPCR method relative to control
[6] = biological target: ATPase family AAA domain-containing protein 2 (Homo sapiens) (UniProt Q6PL18); assay: Inhibition of human partial length ATAD2A (Q981 to R1108 residues) expressed in Escherichia coli BL21 assessed as residual activity at 1 uM after 1 hr by qPCR method relative to control
[7] = Tmax in ICR (CD-1) mouse at 10 mg/kg, po; assay type: ADME, organism-based; conditions: in vivo
[8] = biological target: Histone acetyltransferase p300 (Homo sapiens) (UniProt Q09472); assay: Inhibition of human partial length EP300 (A1040 to G1161 residues) expressed in Escherichia coli BL21 assessed as residual activity at 1 uM after 1 hr by qPCR method relative to control
[9] = biological target: SWI/SNF-related matrix-associated actin-dependent regulator of chromatin subfamily A member 2 (Homo sapiens) (UniProt P51531); assay: Inhibition of human partial length SMARCA2 (S1377 to Q1486 residues) expressed in Escherichia coli BL21 assessed as residual activity at 1 uM after 1 hr by qPCR method relative to control
Chain of SWI/SNF-related matrix-associated actin-dependent regulator of chromatin subfamily A member 2 (Homo sapiens) (P51531 whole entry, the tested form may be a part): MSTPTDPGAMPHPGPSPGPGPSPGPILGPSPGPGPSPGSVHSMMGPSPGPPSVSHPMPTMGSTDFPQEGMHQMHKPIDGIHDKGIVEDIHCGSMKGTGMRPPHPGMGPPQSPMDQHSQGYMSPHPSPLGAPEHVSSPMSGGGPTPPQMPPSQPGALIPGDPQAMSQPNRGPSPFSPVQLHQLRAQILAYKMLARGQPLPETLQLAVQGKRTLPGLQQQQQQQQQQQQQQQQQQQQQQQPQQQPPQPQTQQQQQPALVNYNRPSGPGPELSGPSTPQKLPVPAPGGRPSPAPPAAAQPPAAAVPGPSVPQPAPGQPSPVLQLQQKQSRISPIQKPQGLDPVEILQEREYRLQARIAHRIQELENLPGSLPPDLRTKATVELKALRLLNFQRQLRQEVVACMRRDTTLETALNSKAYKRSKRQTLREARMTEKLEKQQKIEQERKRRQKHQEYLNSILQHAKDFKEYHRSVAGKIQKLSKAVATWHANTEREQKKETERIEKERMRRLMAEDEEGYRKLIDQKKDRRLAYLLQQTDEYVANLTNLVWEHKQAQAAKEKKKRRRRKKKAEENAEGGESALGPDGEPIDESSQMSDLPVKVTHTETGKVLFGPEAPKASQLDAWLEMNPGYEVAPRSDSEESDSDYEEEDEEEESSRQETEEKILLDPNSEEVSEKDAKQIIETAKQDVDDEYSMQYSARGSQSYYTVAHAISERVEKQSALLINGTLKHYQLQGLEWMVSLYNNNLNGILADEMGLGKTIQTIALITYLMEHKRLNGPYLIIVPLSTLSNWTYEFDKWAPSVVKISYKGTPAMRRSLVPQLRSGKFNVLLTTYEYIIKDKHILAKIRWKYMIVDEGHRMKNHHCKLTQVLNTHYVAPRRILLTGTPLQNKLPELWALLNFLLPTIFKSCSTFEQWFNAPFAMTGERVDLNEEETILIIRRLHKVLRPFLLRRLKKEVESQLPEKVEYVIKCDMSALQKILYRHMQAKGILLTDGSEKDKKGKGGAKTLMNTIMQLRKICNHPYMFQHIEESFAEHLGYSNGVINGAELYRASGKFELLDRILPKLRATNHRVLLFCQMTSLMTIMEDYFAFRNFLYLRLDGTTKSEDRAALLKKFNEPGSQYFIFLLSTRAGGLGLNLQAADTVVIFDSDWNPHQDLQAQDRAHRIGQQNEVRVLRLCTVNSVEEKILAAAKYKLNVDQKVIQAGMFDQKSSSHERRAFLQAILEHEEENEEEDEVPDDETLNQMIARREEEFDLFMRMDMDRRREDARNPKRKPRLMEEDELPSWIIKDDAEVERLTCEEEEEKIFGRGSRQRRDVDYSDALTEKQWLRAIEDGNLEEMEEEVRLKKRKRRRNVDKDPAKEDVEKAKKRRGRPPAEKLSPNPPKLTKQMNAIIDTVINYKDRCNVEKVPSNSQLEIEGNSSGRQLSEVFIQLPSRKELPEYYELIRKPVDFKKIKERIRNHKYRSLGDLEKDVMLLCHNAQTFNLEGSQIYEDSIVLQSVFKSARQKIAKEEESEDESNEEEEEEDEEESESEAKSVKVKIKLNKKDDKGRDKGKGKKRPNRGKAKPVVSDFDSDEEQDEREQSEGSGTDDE

[10] = biological target: Bromodomain and PHD finger-containing protein 3 (Homo sapiens) (UniProt Q9ULD4); assay: Inhibition of human partial length BRPF3 (E588 to G701 residues) expressed in Escherichia coli BL21 assessed as residual activity at 1 uM after 1 hr by qPCR method relative to control
[11] = biological target: Histone acetyltransferase KAT2A (Homo sapiens) (UniProt Q92830); assay: Inhibition of human partial length GCN5L2 (E726 to K837 residues) expressed in Escherichia coli BL21 assessed as residual activity at 1 uM after 1 hr by qPCR method relative to control
[12] = biological target: Bromodomain-containing protein 9 (Homo sapiens) (UniProt Q9H8M2); assay: Inhibition of human partial length BRD9 (R130 to V259 residues) expressed in Escherichia coli BL21 assessed as residual activity at 1 uM after 1 hr by qPCR method relative to control
[13] = biological target: Protein polybromo-1 (Homo sapiens) (UniProt Q86U86); assay: Inhibition of human partial length PBRM1 bromodomain 2 (S178 to E291 residues) expressed in Escherichia coli BL21 assessed as residual activity at 1 uM after 1 hr by qPCR method relative to control
Chain of Protein polybromo-1 (Homo sapiens) (Q86U86 whole entry, the tested form may be a part): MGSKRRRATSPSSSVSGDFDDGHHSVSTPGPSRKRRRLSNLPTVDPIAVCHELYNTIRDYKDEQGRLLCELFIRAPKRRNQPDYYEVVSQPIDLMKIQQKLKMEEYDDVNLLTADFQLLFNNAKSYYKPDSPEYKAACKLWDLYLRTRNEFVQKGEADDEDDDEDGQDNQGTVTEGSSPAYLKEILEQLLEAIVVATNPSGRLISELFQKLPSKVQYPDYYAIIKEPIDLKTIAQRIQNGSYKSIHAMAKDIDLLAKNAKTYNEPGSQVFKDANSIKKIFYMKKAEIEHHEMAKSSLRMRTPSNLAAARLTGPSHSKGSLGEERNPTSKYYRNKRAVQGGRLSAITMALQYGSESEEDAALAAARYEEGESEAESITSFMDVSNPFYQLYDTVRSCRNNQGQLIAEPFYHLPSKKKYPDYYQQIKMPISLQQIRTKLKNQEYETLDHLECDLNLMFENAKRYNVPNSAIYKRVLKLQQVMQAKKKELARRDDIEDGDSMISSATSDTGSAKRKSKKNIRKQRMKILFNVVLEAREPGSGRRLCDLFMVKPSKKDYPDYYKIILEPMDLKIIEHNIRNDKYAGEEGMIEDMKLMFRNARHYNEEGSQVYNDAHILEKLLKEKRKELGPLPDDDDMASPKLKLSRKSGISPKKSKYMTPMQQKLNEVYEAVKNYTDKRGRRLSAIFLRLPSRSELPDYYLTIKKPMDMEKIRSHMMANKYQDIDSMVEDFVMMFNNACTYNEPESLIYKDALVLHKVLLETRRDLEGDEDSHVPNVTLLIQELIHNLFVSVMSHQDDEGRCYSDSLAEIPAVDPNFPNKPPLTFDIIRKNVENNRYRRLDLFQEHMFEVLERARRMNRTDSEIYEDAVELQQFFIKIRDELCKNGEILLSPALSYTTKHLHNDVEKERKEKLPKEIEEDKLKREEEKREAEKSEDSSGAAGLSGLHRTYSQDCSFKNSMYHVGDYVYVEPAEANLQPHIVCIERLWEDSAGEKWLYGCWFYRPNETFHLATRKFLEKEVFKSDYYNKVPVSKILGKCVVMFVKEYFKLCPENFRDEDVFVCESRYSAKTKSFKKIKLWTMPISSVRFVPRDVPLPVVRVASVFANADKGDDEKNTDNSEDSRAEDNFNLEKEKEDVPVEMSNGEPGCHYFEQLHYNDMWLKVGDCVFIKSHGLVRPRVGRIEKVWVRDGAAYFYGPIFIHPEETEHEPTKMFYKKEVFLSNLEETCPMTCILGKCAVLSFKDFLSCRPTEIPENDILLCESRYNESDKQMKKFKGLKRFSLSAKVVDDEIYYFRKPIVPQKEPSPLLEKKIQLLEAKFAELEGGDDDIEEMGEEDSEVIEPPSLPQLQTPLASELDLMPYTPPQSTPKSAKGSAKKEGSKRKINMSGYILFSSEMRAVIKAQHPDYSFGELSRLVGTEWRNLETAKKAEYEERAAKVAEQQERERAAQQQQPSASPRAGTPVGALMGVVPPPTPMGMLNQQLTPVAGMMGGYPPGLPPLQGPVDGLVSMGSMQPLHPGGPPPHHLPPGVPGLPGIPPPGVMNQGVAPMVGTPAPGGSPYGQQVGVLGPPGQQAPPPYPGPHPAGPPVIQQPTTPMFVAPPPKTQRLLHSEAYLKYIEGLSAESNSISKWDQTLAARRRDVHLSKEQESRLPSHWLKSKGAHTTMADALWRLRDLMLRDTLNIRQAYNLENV

[14] = biological target: Transcription initiation factor TFIID subunit 1 (Homo sapiens) (UniProt P21675); assay: Inhibition of human partial length TAF1 bromodomain 2 (D1521 to D1656 residues) expressed in Escherichia coli BL21 assessed as residual activity at 1 uM after 1 hr by qPCR method relative to control
[15] = AUC (0 to infinity) in ICR (CD-1) mouse at 10 mg/kg, po; assay type: ADME, organism-based; set-up: dose 10 mg/kg, time infinity, route oral; conditions: in vivo
[16] = biological target: T1, Bromodomain-containing protein 4; assay: Inhibition of human partial length BRD4 bromodomain 1 long isoform (N44 to E168 residues) expressed in Escherichia coli BL21 assessed as residual activity at 1 uM after 1 hr by qPCR method relative to control
[17] = biological target: Bromodomain-containing protein 2 (Homo sapiens) (UniProt P25440); assay: Inhibition of human partial length BRD2 bromodomain 2 isoform 1 (E348 to D455 residues) expressed in Escherichia coli BL21 assessed as residual activity at 1 uM after 1 hr by qPCR method relative to control
Chain of Bromodomain-containing protein 2 (Homo sapiens) (P25440 whole entry, looked up, the tested form may be a part, canonical isoform): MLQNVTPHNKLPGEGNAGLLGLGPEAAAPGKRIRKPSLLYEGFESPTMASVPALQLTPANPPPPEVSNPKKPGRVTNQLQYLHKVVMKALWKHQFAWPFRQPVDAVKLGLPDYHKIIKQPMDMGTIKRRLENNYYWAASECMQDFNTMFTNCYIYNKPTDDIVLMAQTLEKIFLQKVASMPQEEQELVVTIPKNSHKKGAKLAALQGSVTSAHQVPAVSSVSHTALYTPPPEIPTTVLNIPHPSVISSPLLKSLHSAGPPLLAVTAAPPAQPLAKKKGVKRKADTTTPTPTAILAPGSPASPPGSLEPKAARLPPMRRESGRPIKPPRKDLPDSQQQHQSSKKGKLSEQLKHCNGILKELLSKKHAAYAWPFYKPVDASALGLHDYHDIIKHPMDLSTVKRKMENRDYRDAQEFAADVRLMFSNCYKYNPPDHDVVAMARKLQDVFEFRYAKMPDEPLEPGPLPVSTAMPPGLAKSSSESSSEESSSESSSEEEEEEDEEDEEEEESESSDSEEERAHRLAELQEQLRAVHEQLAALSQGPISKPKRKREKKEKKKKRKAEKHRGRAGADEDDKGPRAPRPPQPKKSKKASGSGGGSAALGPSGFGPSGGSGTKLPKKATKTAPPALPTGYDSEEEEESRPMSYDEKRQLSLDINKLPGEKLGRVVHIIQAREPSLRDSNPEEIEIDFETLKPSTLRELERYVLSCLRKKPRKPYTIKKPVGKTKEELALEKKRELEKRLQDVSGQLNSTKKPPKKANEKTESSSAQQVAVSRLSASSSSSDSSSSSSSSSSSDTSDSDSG

[18] = biological target: SWI/SNF-related matrix-associated actin-dependent regulator of chromatin subfamily A member 4 (Homo sapiens) (UniProt P51532); assay: Inhibition of human partial length SMARCA4 (A1448 to S1575 residues) expressed in Escherichia coli BL21 assessed as residual activity at 1 uM after 1 hr by qPCR method relative to control
[19] = Cmax in ICR (CD-1) mouse at 10 mg/kg, po; assay type: ADME, organism-based; set-up: dose 10 mg/kg, route oral; conditions: in vivo
[20] = biological target: T1, Bromodomain-containing protein 4; assay: Inhibition of human partial length BRD4 bromodomain 2 long isoform (K333 to E460 residues) expressed in Escherichia coli BL21 assessed as residual activity at 1 uM after 1 hr by qPCR method relative to control
[21] = biological target: T1, Bromodomain-containing protein 4; assay: Inhibition of BRD4 in human TY82 cells assessed as downregulation of c-Myc mRNA expression at 1 uM after 24 hrs by RT-qPCR method relative to control; assay type: cell-based
[22] = biological target: E3 ubiquitin-protein ligase TRIM33 (Homo sapiens) (UniProt Q9UPN9); assay: Inhibition of human partial length TRIM33 (D882 to A1087 residues) expressed in Escherichia coli BL21 assessed as residual activity at 1 uM after 1 hr by qPCR method relative to control
[23] = biological target: Bromodomain-containing protein 2 (Homo sapiens) (UniProt P25440); assay: Inhibition of human partial length BRD2 bromodomain 1 long isoform (K71 to N194 residues) expressed in Escherichia coli BL21 assessed as residual activity at 1 uM after 1 hr by qPCR method relative to control
[24] = biological target: Bromodomain-containing protein 7 (Homo sapiens) (UniProt Q9NPI1); assay: Inhibition of human partial length BRD7 (L125 to R254 residues) expressed in mammalian expression system assessed as residual activity at 1 uM after 1 hr by qPCR method relative to control
Chain of Bromodomain-containing protein 7 (Homo sapiens) (Q9NPI1 whole entry, the tested form may be a part): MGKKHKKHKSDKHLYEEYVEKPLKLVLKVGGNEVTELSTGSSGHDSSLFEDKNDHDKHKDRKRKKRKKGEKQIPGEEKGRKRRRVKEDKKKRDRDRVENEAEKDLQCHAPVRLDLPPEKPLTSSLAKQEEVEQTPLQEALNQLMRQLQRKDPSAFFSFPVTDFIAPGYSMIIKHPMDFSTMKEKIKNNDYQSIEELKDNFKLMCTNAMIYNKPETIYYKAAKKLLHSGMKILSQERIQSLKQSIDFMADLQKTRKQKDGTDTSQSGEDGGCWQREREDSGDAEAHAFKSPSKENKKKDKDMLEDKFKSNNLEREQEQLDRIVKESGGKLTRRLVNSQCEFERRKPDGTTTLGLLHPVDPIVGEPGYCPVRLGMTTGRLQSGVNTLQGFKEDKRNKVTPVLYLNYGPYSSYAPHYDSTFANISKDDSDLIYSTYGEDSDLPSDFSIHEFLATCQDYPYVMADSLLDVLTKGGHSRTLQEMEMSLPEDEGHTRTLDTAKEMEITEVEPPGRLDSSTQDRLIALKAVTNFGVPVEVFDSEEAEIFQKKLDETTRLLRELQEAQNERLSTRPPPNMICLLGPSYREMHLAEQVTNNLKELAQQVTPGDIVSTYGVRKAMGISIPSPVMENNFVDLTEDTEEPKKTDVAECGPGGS

[25] = biological target: Transcription intermediary factor 1-alpha (Homo sapiens) (UniProt O15164); assay: Inhibition of human partial length TRIM24 (P790 to P977 residues) expressed in Escherichia coli BL21 assessed as residual activity at 1 uM after 1 hr by qPCR method relative to control
[26] = biological target: Protein polybromo-1 (Homo sapiens) (UniProt Q86U86); assay: Inhibition of human partial length PBRM1 bromodomain 5 (S645 to D766 residues) expressed in Escherichia coli BL21 assessed as residual activity at 1 uM after 1 hr by qPCR method relative to control

Activity [1]: 0.1%
Activity [2]: 83%
inhibition [3]: Dose-dependent effect
Activity [4]: 82%
Activity [5]: 67%
Activity [6]: 100%
Tmax [7]: 19.8 min
Activity [8]: 47%
Activity [9]: 73%
Activity [10]: 100%
Activity [11]: 63%
Activity [12]: 77%
Activity [13]: 100%
Activity [14]: 85%
AUC(0-inf) [15]: 1690 ng·h/mL
Activity [16]: 1.7%
Activity [17]: 0%
Activity [18]: 95%
Cmax [19]: 869 ng/mL
Activity [20]: 0.05%
inhibition [21]: > 60%
Activity [22]: 99%
Activity [23]: 0.9%
Activity [24]: 97%
Activity [25]: 80%
Activity [26]: 94%
Compound: Cc1ccc([C@H](C)Nc2ccc3c(c2)N(C2CC2)[C@H](C)C(=O)N3C)c(C)c1
